According to patent US20150217046A1, “DOSING REGIMENS FOR SUBCUTANEOUSLY INFUSIBLE ACIDIC COMPOSITIONS” (SynAgile Corporation, priority 2012, published 2015):
Read-outs that look alike come from different tables or passages of the source.

What was measured:
[1] = for Plasma LD, 480 minutes after start of infusion: 2 sites, 8 h, hyaluronidase pre-infusion
Experimental: Six minipigs, labeled A, B, C, D, E and F, weighing between 5 and 8 kg, were ported for venous access two weeks prior to infusion.
On Day 8 minipig A was similarly re-infused at the contralateral body site after it was pre-infused over about 10 minutes with 15 units of human hyaluronidase.
Minipigs C and D were infused on the first day over 8 hours continuously with 560 mg (2.5 millimoles) of the 100 mg/mL, i.e., with 5.6 mL of the pH 3.7 (16 mM citrate buffered) LDEE pharmaceutical composition. The 560 mg dose was split between 2 sites separated by 3 inches, each site receiving 280 mg.
Minipigs E and F were infused on Day 1 similarly to minipigs C and D, but were pre-infused over about 10 minutes with 15 units of human hyaluronidase.
On the 8th day minipig D was re-infused at the Day 1 infusion sites over 8 hours continuously with 560 mg (2.5 millimoles) of 100 mg/mL, i.e., with 5.6 mL of the pH 3.7 (16 mM citrate buffered) LDEE pharmaceutical composition. […] Minipig F was also re-infused on Day 8 similarly to minipig D but was pre-infused with 15 units of human hyaluronidase over about 10 min.
On Day 8, minipig C was also re-infused, but received only half the dose.
The samples were rapidly cooled and spun down to plasma; because hemoglobin reacts with LD in a reaction where LD is decarboxylated, red-colored plasma samples were excluded.

[2] = Infusion site reactions, intermittent subcutaneous infusion of 100 and 200 mg/mL LDEE pH 3.7 (Example 4); details: for infusion site reactions, doses pooled: 14 days post-infusion
Source text: Each infusion site was spaced a minimum of 2 inches (5 cm) apart from any other infusion site.

[3] = Plasma LDEE concentrations after 8 hours of subcutaneous infusion (Example 8); set-up: species or system minipigs; details: minipig, in vivo
Experimental: In addition to measuring the LD plasma concentrations as described in Example 6, also the plasma LDEE concentrations were measured.

[4] = Infusion site reactions, intermittent subcutaneous infusion of 200 mg/mL LDEE pH 4.5 (Example 2); assay type: in vivo, minipigs
Source text: Each infusion site was spaced a minimum of 2.5 inches (6.3 cm) apart from any other infusion site.
In all cases, the infusion site reaction constituted a swelling of 0.5-4.0 cm diameter, typically 0.5-1.5 cm.

[5] = Swelling/induration and histopathology after continuous subcutaneous infusion (Example 1); assay type: in vivo, Yucatan minipigs; details: for microscopic changes at infused site: pH 4.6
Source text: The pharmaceutical compositions were citrate buffered at pH 4.6 where most, but not all, of the LDEE is in the salt form, i.e., there is also some free base.

[6] = minipig F day 8: 560 mg LDEE (100 mg/mL, pH 3.7) re-infused at 2 sites over 8 h, pre-infused with 15 units human hyaluronidase

For `CCOC(=O)[C@@H](N)Cc1ccc(O)c(O)c1` [LDEE, levodopa ethyl ester], the “Plasma LD, 480 minutes after start of infusion” value ([1]; minipig F day 1: 560 mg LDEE (100 mg/mL, pH 3.7)) was 12,982 ng/mL, the “40 minutes Post-Infusion plasma LD” value [1, 6] was 8223 ng/mL and the “100 minutes Post-Infusion plasma LD” value [1, 6] was 6231 ng/mL. For the same compound, the “170 minutes Post-Infusion plasma LD” value [1, 6] was 3650 ng/mL, the “End of Infusion Plasma LD” value [1, 6] was 8880 ng/mL and the “Plasma LD, 480 minutes after start of infusion” value ([1]; minipig F day 8: 560 mg LDEE (100 mg/mL, pH 3.7)) was 8880 ng/mL. The “infusion site reactions, doses pooled” value ([2]; 100 mg/mL LDEE pH 3.7) was 0 out of 16, the “infusion site reactions, doses pooled” value ([2]; 200 mg/mL LDEE pH 3.7) was 5 out of 16 and the “tolerability of infused volume per site” value ([2]; LDEE pH 3.7, volumes between 0.094 and 0.37 mL per hour per site) was “well tolerated”. The “# of Infusion Site Reactions/# of Infusion Sites” value ([2]; pH 3.7, intermittent s.c. (35 min non-delivery), 100 mg/mL, 563 mg, 16 hrs, 0 hrs) was 0/4, the “# of Infusion Site Reactions/# of Infusion Sites” value ([2]; pH 3.7, intermittent s.c. (35 min non-delivery), 100 mg/mL, 563 mg, 16 hrs, 12 hrs) was 0/4 and the “# of Infusion Site Reactions/# of Infusion Sites” value ([2]; pH 3.7, intermittent s.c. (35 min non-delivery), 100 mg/mL, 563 mg, 16 hrs, 24 hrs) was 2/4. For the same compound, the “# of Infusion Site Reactions/# of Infusion Sites” value ([2]; pH 3.7, intermittent s.c. (35 min non-delivery), 100 mg/mL, 563 mg, 16 hrs, 3 days) was 3/4, the “# of Infusion Site Reactions/# of Infusion Sites” value ([2]; pH 3.7, intermittent s.c. (35 min non-delivery), 100 mg/mL, 563 mg, 16 hrs, 7 days) was 3/4 and the “# of Infusion Site Reactions/# of Infusion Sites” value ([2]; pH 3.7, intermittent s.c. (35 min non-delivery), 100 mg/mL, 563 mg, 16 hrs, 14 days) was 0/4. The “# of Infusion Site Reactions/# of Infusion Sites” value ([2]; pH 3.7, intermittent s.c., 100 mg/mL, 140 mg, 8 hrs, 0 hrs) was 0/8, the “# of Infusion Site Reactions/# of Infusion Sites” value ([2]; pH 3.7, intermittent s.c., 100 mg/mL, 140 mg, 8 hrs, 12 hrs) was 0/8 and the “# of Infusion Site Reactions/# of Infusion Sites” value ([2]; pH 3.7, intermittent s.c., 100 mg/mL, 140 mg, 8 hrs, 24 hrs) was 0/8. The “# of Infusion Site Reactions/# of Infusion Sites” value ([2]; pH 3.7, intermittent s.c., 100 mg/mL, 140 mg, 8 hrs, 3 days) was 3/8, the “# of Infusion Site Reactions/# of Infusion Sites” value ([2]; pH 3.7, intermittent s.c., 100 mg/mL, 140 mg, 8 hrs, 7 days) was 1/8 and the “# of Infusion Site Reactions/# of Infusion Sites” value ([2]; pH 3.7, intermittent s.c., 100 mg/mL, 140 mg, 8 hrs, 14 days) was 0/8. The “# of Infusion Site Reactions/# of Infusion Sites” value ([2]; pH 3.7, intermittent s.c., 100 mg/mL, 282 mg, 16 hrs, 0 hrs) was 0/4, the “# of Infusion Site Reactions/# of Infusion Sites” value ([2]; pH 3.7, intermittent s.c., 100 mg/mL, 282 mg, 16 hrs, 12 hrs) was 0/4 and the “# of Infusion Site Reactions/# of Infusion Sites” value ([2]; pH 3.7, intermittent s.c., 100 mg/mL, 282 mg, 16 hrs, 24 hrs) was 1/4. The “# of Infusion Site Reactions/# of Infusion Sites” value ([2]; pH 3.7, intermittent s.c., 100 mg/mL, 282 mg, 16 hrs, 3 days) was 1/4, the “# of Infusion Site Reactions/# of Infusion Sites” value ([2]; pH 3.7, intermittent s.c., 100 mg/mL, 282 mg, 16 hrs, 7 days) was 0/4 and the “# of Infusion Site Reactions/# of Infusion Sites” value ([2]; pH 3.7, intermittent s.c., 100 mg/mL, 282 mg, 16 hrs, 14 days) was 0/4. For the same compound, the “# of Infusion Site Reactions/# of Infusion Sites” value ([2]; pH 3.7, intermittent s.c., 200 mg/mL, 140 mg, 8 hrs, 0 hrs) was 0/8, the “# of Infusion Site Reactions/# of Infusion Sites” value ([2]; pH 3.7, intermittent s.c., 200 mg/mL, 140 mg, 8 hrs, 12 hrs) was 0/8 and the “# of Infusion Site Reactions/# of Infusion Sites” value ([2]; pH 3.7, intermittent s.c., 200 mg/mL, 140 mg, 8 hrs, 24 hrs) was 0/8. For the same compound, the “# of Infusion Site Reactions/# of Infusion Sites” value ([2]; pH 3.7, intermittent s.c., 200 mg/mL, 140 mg, 8 hrs, 3 days) was 3/8, the “# of Infusion Site Reactions/# of Infusion Sites” value ([2]; pH 3.7, intermittent s.c., 200 mg/mL, 140 mg, 8 hrs, 7 days) was 3/8 and the “# of Infusion Site Reactions/# of Infusion Sites” value ([2]; pH 3.7, intermittent s.c., 200 mg/mL, 140 mg, 8 hrs, 14 days) was 2/8. The “# of Infusion Site Reactions/# of Infusion Sites” value ([2]; pH 3.7, intermittent s.c., 200 mg/mL, 282 mg, 16 hrs, 0 hrs) was 0/4, the “# of Infusion Site Reactions/# of Infusion Sites” value ([2]; pH 3.7, intermittent s.c., 200 mg/mL, 282 mg, 16 hrs, 12 hrs) was 0/4 and the “# of Infusion Site Reactions/# of Infusion Sites” value ([2]; pH 3.7, intermittent s.c., 200 mg/mL, 282 mg, 16 hrs, 24 hrs) was 0/4. The “# of Infusion Site Reactions/# of Infusion Sites” value ([2]; pH 3.7, intermittent s.c., 200 mg/mL, 282 mg, 16 hrs, 3 days) was 2/4, the “# of Infusion Site Reactions/# of Infusion Sites” value ([2]; pH 3.7, intermittent s.c., 200 mg/mL, 282 mg, 16 hrs, 7 days) was 2/4 and the “# of Infusion Site Reactions/# of Infusion Sites” value ([2]; pH 3.7, intermittent s.c., 200 mg/mL, 282 mg, 16 hrs, 14 days) was 1/4. The “# of Infusion Site Reactions/# of Infusion Sites” value ([2]; pH 3.7, intermittent s.c., 200 mg/mL, 563 mg, 16 hrs, 0 hrs) was 0/4, the “# of Infusion Site Reactions/# of Infusion Sites” value ([2]; pH 3.7, intermittent s.c., 200 mg/mL, 563 mg, 16 hrs, 12 hrs) was 0/4 and the “# of Infusion Site Reactions/# of Infusion Sites” value ([2]; pH 3.7, intermittent s.c., 200 mg/mL, 563 mg, 16 hrs, 24 hrs) was 0/4. The “# of Infusion Site Reactions/# of Infusion Sites” value ([2]; pH 3.7, intermittent s.c., 200 mg/mL, 563 mg, 16 hrs, 3 days) was 3/4, the “# of Infusion Site Reactions/# of Infusion Sites” value ([2]; pH 3.7, intermittent s.c., 200 mg/mL, 563 mg, 16 hrs, 7 days) was 3/4 and the “# of Infusion Site Reactions/# of Infusion Sites” value ([2]; pH 3.7, intermittent s.c., 200 mg/mL, 563 mg, 16 hrs, 14 days) was 2/4. For the same compound, the “Plasma LDEE, 480 minutes after start of infusion” value [3] was 6.9 ng/mL, the “diameter of swelling (infusion site reaction)” value ([4]; 200 mg/mL (0.89 M) LDEE pH 4.5, 140 mg, intermittent s.c., typically 0.5-1.5 cm) was 0.5-4.0 cm and the “rate of small granuloma formation” value ([4]; 200 mg/mL (0.89M) LDEE pH 4.5, 140 mg, 14 days post-infusion) was 33%. For the same compound, the infusion site reactions ([4]; 200 mg/mL (0.89 M) LDEE pH 4.5, 14-15 days post-infusion) was 8 out of 24, the “swelling/induration of infused sites” value ([5]; 1,142 mg LDEE over 16 hours continuous s.c., 326 mg/mL and 220 mg/mL, citrate buffered pH 4.6) was “Most, but not all, of the infused sites were swollen and/or developed firm indurations” and the “microscopic changes at infused site” value ([5]; one month after infusion of 328 mg LDEE/mL (1.45 M)) was “mild to moderate granulomatous inflammation of the panniculus”. The “microscopic changes at infused site” value ([5]; one week after infusion of 220 mg LDEE per mL (0.98 M)) was “mild thrombus formation in the blood vessels of the panniculus, with minimal hemorrhage and subacute inflammation”, the “microscopic changes at infused site” value ([5]; three weeks after infusion of 220 mg LDEE per mL (0.98 M), minipig A) was “minimal hemorrhage of the dermis and panniculus” and the “microscopic changes at infused site” value ([5]; three weeks after infusion of 220 mg LDEE per mL (0.98 M), minipig B) was “mild granulomatous inflammation”.
